Consider 23 molecules from patent USRE47589E1, “Phosphoramidate compounds and methods of use” (NuCana plc, priority 2003, dated 2019).

What all share (assay type): cell-based
For assay [1], the system named is human colon cancer cell line (HT115). The experiment in a line: MTT cytotoxicity assay, colon cancer cell line. Particulars: Homo sapiens, HT115, read-out: EC50/μM Colon HT115, MTT assay, compounds added to cells over 1 to 3 days. The protocol:
(§1) The compounds include those whose preparations are described above and compounds made by preparative methods corresponding to the methods described above.
(§2) Compounds were diluted over a range of concentrations and added to cells over 1 to 3 days. The cytotoxity was determined using a MTT assay at the end of each experiment.
(In general: Tetrazolium assays rely on reduction of a dye to a coloured formazan, in cell work by metabolically active cells.)

For assay [2], the system named is human breast cancer cell line (MDA MB 231). In words: MTT cytotoxicity assay, breast cancer cell line. To be noted: Homo sapiens, MDA-MB-231, read-out: EC50/μM Breast MDA MB231. The protocol:
as §1, §2

Assay [3] deals with human prostate cancer cell line (PC-3). The experiment in a line: MTT cytotoxicity assay, prostate cancer cell line. Particulars: Homo sapiens, read-out: EC50/μM Prostate PC-3. The procedure: as §1, §2

Each structure is given as a SMILES string.

As to `COC(=O)C1(NP(=O)(OC[C@H]2O[C@@H](n3cc(/C=C/Br)c(=O)[nH]c3=O)CC2O)Oc2ccc([N+](=O)[O-])cc2)CCCC1` (stereo partly drawn) [Example 19, (E)-5-(2-Bromovinyl)-2′-deoxyuridine-5′-[para-nitrophenyl-(methoxy-α,α-cycloleucinyl)]-phosphate], the figures for the EC50 in assay [1], in assay [2] and in assay [3] were 38.2 µM, 56 µM and 88 µM, respectively.
On to `CCOC(=O)C1(NP(=O)(OC[C@H]2O[C@@H](n3cc(/C=C/Br)c(=O)[nH]c3=O)CC2O)Oc2ccc([N+](=O)[O-])cc2)CCCC1` (stereo partly drawn) [Example 20, (E)-5-(2-Bromovinyl)-2′-deoxyuridine-5′-[para-nitrophenyl-(ethoxy-α,α-cycloleucinyl)]-phosphate], for which the EC50 in assay [1] stood at 57.3 µM; in assay [2], 13 µM; in assay [3], 15 µM.
For the molecule `O=C(OCc1ccccc1)C1(NP(=O)(OC[C@H]2O[C@@H](n3cc(/C=C/Br)c(=O)[nH]c3=O)CC2O)Oc2ccc([N+](=O)[O-])cc2)CCCC1` (stereo partly drawn) [Example 21, (E)-5-(2-Bromovinyl)-2′-deoxyuridine-5′-[para-nitrophenyl-(benzoxy-α,α-cycloleucinyl)]-phosphate], the EC50 in assay [1] came to 17.2 µM; in assay [2], 8.4 µM; in assay [3] it was 2.2 µM.
As for `COC(=O)C1(NP(=O)(OC[C@H]2O[C@@H](n3cc(/C=C/Br)c(=O)[nH]c3=O)CC2O)Oc2ccc(F)cc2)CCCC1` (stereo partly drawn) [Example 22, (E)-5-(2-Bromovinyl)-2′-deoxyuridine-5′-[para-fluorophenyl-(methoxy-α,α-cycloleucinyl)]-phosphate], the EC50 in assay [1] turned out to be 59.7 µM; in assay [2], 57 µM; in assay [3], 51 µM.
`CCOC(=O)C1(NP(=O)(OC[C@H]2O[C@@H](n3cc(/C=C/Br)c(=O)[nH]c3=O)CC2O)Oc2ccc(F)cc2)CCCC1` (stereo partly drawn) [Example 23, (E)-5-(2-Bromovinyl)-2′-deoxyuridine-5′-[para-fluorophenyl-(ethoxy-α,α-cycloleucinyl)]-phosphate]: the EC50 in assay [1] is 18.1 µM; in assay [2], 9.9 µM; in assay [3] it was 2.7 µM.
For the molecule `O=C(OCc1ccccc1)C1(NP(=O)(OC[C@H]2O[C@@H](n3cc(/C=C/Br)c(=O)[nH]c3=O)CC2O)Oc2ccc(F)cc2)CCCC1` (stereo partly drawn) [Example 24, (E)-5-(2-Bromovinyl)-2′-deoxyuridine-5′-[para-fluorophenyl-(benzoxy-α,α-cycloleucinyl)]-phosphate], the EC50 in assay [1] worked out at 17 µM; in assay [2], 9.4 µM; in assay [3], 3.7 µM.
Turning to `COC(=O)C(C)(C)NP(=O)(OC[C@H]1O[C@@H](n2cc(/C=C/Br)c(=O)[nH]c2=O)CC1O)Oc1ccccc1` (stereo partly drawn) [Example 26, (E)-5-(2-bromovinyl)2′-deoxyuridine-5′-[phenyl-(methoxy-α,α-dimethylglycinyl)]-phosphate], the EC50 in assay [1] turned out to be 77.9 µM; in assay [2], 41.1 µM; in assay [3] it was 1.5 µM.
Take `CCOC(=O)C(C)(C)NP(=O)(OC[C@H]1O[C@@H](n2cc(/C=C/Br)c(=O)[nH]c2=O)CC1O)Oc1ccccc1` (stereo partly drawn) [Example 27, (E)-5-(2-bromovinyl)-2′-deoxyuridine-5′-[phenyl-(ethoxy-α,α-dimethylglycinyl)]-phosphate]: the EC50 in assay [1] worked out at 39.7 µM; in assay [2], 218 µM; in assay [3], 76.1 µM.
On the same counts, the results for `CCOC(=O)C1(NP(=O)(OC[C@H]2O[C@@H](n3cc(/C=C/Br)c(=O)[nH]c3=O)CC2O)Oc2ccc(C(F)(F)F)cc2)CCCC1` (stereo partly drawn) [Example 29, (E)-5-(2-Bromovinyl)-2′-deoxyuridine-5′-[para-trifluorophenyl-(ethoxy-α,α-cycloleucinyl)]-phosphate] are 15.1 µM, 45.6 µM and 4.3 µM.
Regarding `COC(=O)C1(NP(=O)(OC[C@H]2O[C@@H](n3cc(/C=C/Br)c(=O)[nH]c3=O)CC2O)Oc2ccc(Cl)cc2)CCCC1` (stereo partly drawn) [Example 32, (E)-5-(2-Bromovinyl)-2′-deoxyuridine-5′-[para-chlorophenyl-(methoxy-α,α-cycloleucinyl)]-phosphate], the EC50 in assay [1] was 99.3 µM; in assay [2] it was 2.6 µM; in assay [3], 52.2 µM.
As to `CCOC(=O)C1(NP(=O)(OC[C@H]2O[C@@H](n3cc(/C=C/Br)c(=O)[nH]c3=O)CC2O)Oc2ccc(Cl)cc2)CCCC1` (stereo partly drawn) [Example 33, (E)-5-(2-Bromovinyl)-2′-deoxyuridine-5′-[para-chlorophenyl-(ethoxy-α,α-cycloleucinyl)]-phosphate], the values for the EC50 in assay [1], in assay [2] and in assay [3] were 97.9 µM, 12 µM and 83.2 µM, respectively.
Consider `O=C(OCc1ccccc1)C1(NP(=O)(OC[C@H]2O[C@@H](n3cc(/C=C/Br)c(=O)[nH]c3=O)CC2O)Oc2ccc(Cl)cc2)CCCC1` (stereo partly drawn) [Example 34, (E)-5-(2-Bromovinyl)-2′-deoxyuridine-5′-[para-chlorophenyl-(benzoxy-α,α-cycloleucinyl)]-phosphate], for which the EC50 came to 8.9 µM in assay [1], 3.9 µM in assay [2] and 6.3 µM in assay [3].
With `COC(=O)[C@H](CC(C)C)NP(=O)(OC[C@H]1O[C@@H](n2cc(/C=C/Br)c(=O)[nH]c2=O)CC1O)Oc1ccccc1` (stereo partly drawn) [Example 35, (E)-5-(2-Bromovinyl)-2′-deoxyuridine-5′-[phenyl-(methoxy-L-leucinyl)]-phosphate], the results for the EC50 in assay [1], in assay [2] and in assay [3] were 7.7 µM, 18.5 µM and 75.7 µM, respectively.
On to `CC(C)C[C@H](NP(=O)(OC[C@H]1O[C@@H](n2cc(/C=C/Br)c(=O)[nH]c2=O)CC1O)Oc1ccccc1)C(=O)OCc1ccccc1` (stereo partly drawn) [Example 37, (E)-5-(2-Bromovinyl)-2′-deoxyuridine-5′-[phenyl-(benzoxy-L-leucinyl)]-phosphate], for which the EC50 in assay [1] came out at 7 µM; in assay [2], 2.8 µM; in assay [3], 7.16 µM.
In the case of `CC(C)C[C@H](NP(=O)(OC[C@H]1O[C@@H](n2cc(/C=C/Br)c(=O)[nH]c2=O)CC1O)Oc1ccc([N+](=O)[O-])cc1)C(=O)OCc1ccccc1` (stereo partly drawn) [Example 38, (E)-5-(2-Bromovinyl)-2′-deoxyuridine-5′-(para-nitrophenyl-(benzoxy-L-leucinyl)]-phosphate], the EC50 is 10.7 µM in assay [1], 6.3 µM in assay [2] and 7.2 µM in assay [3].
Turning to `CC(C)C[C@H](NP(=O)(OC[C@H]1O[C@@H](n2cc(/C=C/Br)c(=O)[nH]c2=O)CC1O)Oc1ccc(Cl)cc1)C(=O)OCc1ccccc1` (stereo partly drawn) [Example 39, (E)-5-(2-Bromovinyl)-2′-deoxyuridine-5′-[para-chlorophenyl-(benzoxy-L-leucinyl)]-phosphate], the EC50 came out at 288 µM in assay [1], 4.3 µM in assay [2] and 193 µM in assay [3].
For `C[C@H](NP(=O)(OC[C@H]1O[C@@H](n2ccc(N)nc2=O)C(F)(F)C1O)Oc1ccc(Cl)cc1)C(=O)OCc1ccccc1` (stereo partly drawn) [Example 40, Gemcitabine-[para-chlorophenyl-(benzoxy-L-alaninyl)]-phosphate] the same measures were 16.1 µM, 9.2 µM and 15.4 µM.
For the molecule `CC(C)(NP(=O)(OC[C@H]1O[C@@H](n2ccc(N)nc2=O)C(F)(F)C1O)Oc1ccc(Cl)cc1)C(=O)OCc1ccccc1` (stereo partly drawn) [Example 41, Gemcitabine-[para-chlorophenyl-(benzoxy-α,α-dimethylglycinyl)]-phosphate], the results for the EC50 in assay [1], in assay [2] and in assay [3] were 317 µM, 3.1 µM and 68.8 µM, respectively.
Turning to `COC(=O)C(C)(C)NP(=O)(OC[C@H]1O[C@@H](n2cc(/C=C/Br)c(=O)[nH]c2=O)CC1O)Oc1ccc(Cl)cc1` (stereo partly drawn) [Example 42, (E)-5-(2-bromovinyl)-2′-deoxyuridine-5′-[4-chlorophenyl-(methoxy-α,α-dimethylglycinyl)]-phosphate], the EC50 is 183 µM in assay [1], 8.7 µM in assay [2] and 442 µM in assay [3].
Consider `CCOC(=O)C(C)(C)NP(=O)(OC[C@H]1O[C@@H](n2cc(/C=C/Br)c(=O)[nH]c2=O)CC1O)Oc1ccc(Cl)cc1` (stereo partly drawn) [Example 43, (E)-5-(2-bromovinyl)-2′-deoxyuridine-5′-[4-chlorophenyl-(ethoxy-α,α-dimethylglycinyl)]-phosphate], for which the figures for the EC50 in assay [1], in assay [2] and in assay [3] were 174 µM, 5.9 µM and 1.15 µM, respectively.
Turning to `CC(C)(NP(=O)(OC[C@H]1O[C@@H](n2cc(/C=C/Br)c(=O)[nH]c2=O)CC1O)Oc1ccc(Cl)cc1)C(=O)OCc1ccccc1` (stereo partly drawn) [Example 44, (E)-5-(2-bromovinyl)-2′-deoxyuridine-5′-[4-chlorophenyl-(benzoxy-α,α-dimethylglycinyl)]-phosphate], the EC50 came out at 4.5 µM in assay [1], 2.3 µM in assay [2] and 9.12 µM in assay [3].
For `COC(=O)C(C)(C)NP(=O)(OC[C@H]1O[C@@H](n2cc(/C=C/Br)c(=O)[nH]c2=O)CC1O)Oc1ccc([N+](=O)[O-])cc1` (stereo partly drawn) [Example 45, (E)-5-(2-bromovinyl)-2′-deoxyuridine-5′-[4-nitrophenyl-(methoxy-α,α-dimethylglycinyl)]-phosphate] the same measures were 24.7 µM, 9.4 µM and 223 µM.
For `CCOC(=O)C(C)(C)NP(=O)(OC[C@H]1O[C@@H](n2cc(/C=C/Br)c(=O)[nH]c2=O)CC1O)Oc1ccc([N+](=O)[O-])cc1` (stereo partly drawn) [Example 46, (E)-5-(2-bromovinyl)-2′-deoxyuridine-5′-[4-nitrophenyl-(ethoxy-α,α-dimethylglycinyl)]-phosphate], the values for the EC50 in assay [1], in assay [2] and in assay [3] were 224 µM, 2 µM and 82.4 µM, respectively.
